Measurements taken from ChEMBL document CHEMBL1150547, “-Phenoxyphenylacetic acid derived angiotensin II antagonists with low nanomolar AT1/AT2 receptor subtype affinity (Part II)” (Bioorg Med Chem Lett, 1995).

What was measured:
[1] = molecular target: T1, Type-1 angiotensin II receptor (Oryctolagus cuniculus, UniProt P34976); test: Tested for its ability to displace the specific binding ligand [125I]-Sar 1,lle8-AlI from rabbit aortic membrane (AT1 receptor)
T1 sequence (P34976 whole entry): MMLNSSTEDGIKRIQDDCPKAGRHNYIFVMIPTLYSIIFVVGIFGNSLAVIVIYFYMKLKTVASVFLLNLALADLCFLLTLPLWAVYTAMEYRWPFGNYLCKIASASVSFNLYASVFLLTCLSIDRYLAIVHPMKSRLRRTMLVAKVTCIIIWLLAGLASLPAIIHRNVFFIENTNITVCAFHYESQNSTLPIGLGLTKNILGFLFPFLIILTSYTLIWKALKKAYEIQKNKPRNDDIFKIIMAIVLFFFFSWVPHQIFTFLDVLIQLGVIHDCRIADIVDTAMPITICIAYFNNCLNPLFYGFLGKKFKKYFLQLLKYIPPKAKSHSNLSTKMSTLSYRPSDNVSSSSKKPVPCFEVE

[2] = molecular target: T2, Type-2 angiotensin II receptor (Rattus norvegicus, UniProt P35351); test: Tested for its ability to displace the specific binding ligand [125I]-Sar 1,lle8-AlI from rat midbrain membrane (AT2 receptor); format: tissue-based
T2 sequence (P35351 whole entry): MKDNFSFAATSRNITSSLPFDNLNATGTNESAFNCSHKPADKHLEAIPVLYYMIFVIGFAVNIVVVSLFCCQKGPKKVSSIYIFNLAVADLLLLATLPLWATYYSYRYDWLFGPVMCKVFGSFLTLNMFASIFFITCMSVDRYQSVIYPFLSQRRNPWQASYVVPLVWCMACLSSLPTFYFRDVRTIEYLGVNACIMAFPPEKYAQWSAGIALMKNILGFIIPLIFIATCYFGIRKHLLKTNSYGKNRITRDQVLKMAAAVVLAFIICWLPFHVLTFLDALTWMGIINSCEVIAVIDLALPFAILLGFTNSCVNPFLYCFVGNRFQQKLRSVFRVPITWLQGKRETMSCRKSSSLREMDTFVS

SMILES	IC50 [1]	IC50 [2]
CCOc1cc(Cn2c(CC)nc3c(C)cc(C)nc32)ccc1OC(C(=O)O)c1ccccc1 (centres undefined)	140 nM	1200 nM
CCc1nc2c(C)cc(C)nc2n1Cc1ccc(OC(C(=O)O)c2ccccc2C)c(Cl)c1 (centres undefined)	3.4 nM	1700 nM
CCc1nc2c(C)cc(C)nc2n1Cc1ccc(OC(C(=O)O)c2ccccc2C)cc1 (centres undefined)	6 nM	5200 nM
CCc1nc2c(C)cc(C)nc2n1Cc1cc(Cl)c(OC(C(=O)O)c2ccccc2)c(OC)c1 (centres undefined)	16 nM	7800 nM
CCCCc1nc2ccccc2n1Cc1ccc(OC(C(=O)O)c2ccccc2)cc1 (centres undefined)	93 nM	2000 nM
CCc1nc2c(C)cc(C)nc2n1Cc1ccc(OC(C(=O)O)c2ccccc2)cc1 (centres undefined)	29 nM	2000 nM
CCCc1cc(Cn2c(CC)nc3c(C)cc(C)nc32)ccc1OC(C(=O)O)c1ccccc1 (centres undefined)	11 nM	47 nM
C=CCc1cc(Cn2c(CC)nc3c(C)cc(C)nc32)cc(Cl)c1OC(C(=O)O)c1ccccc1 (centres undefined)	2.2 nM	760 nM
CCc1nc2c(C)cc(C)nc2n1Cc1ccc(OC(C(=O)O)c2ccccc2)c(C)c1 (centres undefined)	14 nM	940 nM
CCc1nc2c(C)cc(C)nc2n1Cc1ccc(OC(C(=O)O)c2ccccc2)c(C(C)(C)C)c1 (centres undefined)	50 nM	300 nM
CCCc1cc(Cn2c(CC)nc3c(C)cc(C)nc32)ccc1OC(C(=O)O)c1ccccc1C (centres undefined)	11 nM	2400 nM
CCc1nc2c(C)cc(C)nc2n1Cc1ccc(OC(C(=O)O)c2ccccc2)c(OC)c1 (centres undefined)	170 nM	2900 nM
CCCCc1cc(Cn2c(CC)nc3c(C)cc(C)nc32)ccc1OC(C(=O)O)c1ccccc1 (centres undefined)	12 nM	140 nM
CCc1nc2c(C)cc(C)nc2n1Cc1ccc(OC(C(=O)O)c2ccccc2)c(Cl)c1 (centres undefined)	15 nM	720 nM
CCCc1cc(Cn2c(CC)nc3c(C)cc(C)nc32)ccc1OC(C(=O)O)c1ccccc1Cl (centres undefined)	8 nM	> 1000 nM
CCc1nc2c(C)cc(C)nc2n1Cc1ccc(OC(C(=O)O)c2ccccc2)c(C(C)C)c1 (centres undefined)	30 nM	3300 nM
CCc1nc2c(C)cc(C)nc2n1Cc1ccc(OC(C(=O)O)c2ccccc2Cl)cc1 (centres undefined)	10 nM	15000 nM
CCCCc1nc2ccc(C)cc2c(=O)n1Cc1ccc(OC(C(=O)O)c2ccccc2)cc1 (centres undefined)	260 nM	760 nM
CCCc1nc2c(C)ccnc2n1Cc1ccc(OC(C(=O)O)c2ccccc2)cc1 (centres undefined)	65 nM	3400 nM
CCc1nc2c(C)cc(C)nc2n1Cc1ccc(OC(C(=O)O)c2ccccc2)c(C(=O)c2ccccc2)c1 (centres undefined)	120 nM	60 nM
C=CCc1cc(Cn2c(CC)nc3c(C)cc(C)nc32)ccc1OC(C(=O)O)c1ccccc1 (centres undefined)	20 nM	270 nM
CCc1nc2c(C)cc(C)nc2n1Cc1ccc(OC(C(=O)O)c2ccccc2)c(C(C)=O)c1 (centres undefined)	62 nM	610 nM
CCc1cc(Cn2c(CC)nc3c(C)cc(C)nc32)ccc1OC(C(=O)O)c1ccccc1 (centres undefined)	12 nM	410 nM
CCCc1cc(Cn2c(CC)nc3c(C)cc(C)nc32)ccc1OC(C(=O)O)c1ccccc1OC (centres undefined)	9.5 nM	1200 nM
CCc1nc2c(C)cc(C)nc2n1Cc1cc(Cl)c(OC(C(=O)O)c2ccccc2)c(Cl)c1 (centres undefined)	21 nM	9000 nM
CCc1nc2c(C)cc(C)nn2c1Cc1ccc(OC(C(=O)O)c2ccccc2)cc1 (centres undefined)	69 nM	3000 nM
CCc1nc2c(C)cc(C)nc2n1Cc1ccc(OC(C(=O)O)c2ccccc2)c(Cc2ccccc2)c1 (centres undefined)	95 nM	800 nM
